In patent US12421206B2, “Aryl-n-aryl derivatives for treating a RNA virus infection” (ABIVAX, priority 2018, dated 2025):

What was measured:
DENV-2 strain 16681 = test: DENV-2 inhibition (cytopathic effect inhibition) using Viral ToxGlo assay in A549 cells; type: cell-based, Dengue 2 virus; conditions: Dengue virus, DENV2, 120 h, compounds at 10 μM, MOI 0.5, 5 days p.i., read-out: % DENV-2 Inhibition Mean (n = 3)
Protocol: Protocol for Screening Antiviral Compounds for DENV-2 Inhibition and Cytotoxicity Using Viral ToxGlo Assay
A549 cells were maintained in Dulbecco's Modified Eagle Medium (DMEM) supplemented with 10% fetal bovine serum, 100 U/ml penicillin and 100 μg/ml streptomycin. For the purposes of the screening assay they were grown to 90% confluency, trypsinized and recovered. The trypsin was neutralised with cell culture media and cells were centrifuged at 150×g for 5 minutes before discarding the supernatant and resuspending cell pellet in assay media (DMEM supplemented with 2% fetal bovine serum and 100 U/ml penicillin and 100 μg/ml streptomycin). The cells were seeded into 96-well white clear-bottomed cell culture plates at a density of 1.0×10^4 cells/well in 50 μl. For the media/background control column assay media only was added. Cell plates were placed in a humid chamber and incubated overnight at 37° C./5% CO2. After overnight incubation cells were checked for confluency and healthy appearance.
Test compounds were prepared at a final concentration of 10 μM in a maximum DMSO concentration of 1% (final assay concentration maximal 0.1% DMSO) and added to the cell plates in volumes of 10 μl. For cell control and virus control wells the test article solvent only was added. As a positive inhibition control, 7-Deaza-2′-C-methyladenosine was added at 100 μM in 3 wells. Virus (DENV-2 strain 16681) or assay media for cytotoxicity test wells and media/cell control wells was added immediately after test articles at an MOI of 0.5, 40 for 96 well plates respectively. Virus suspension was prepared by thawing DENV-2 frozen stocks and diluting to the required concentration of plaque forming units in assay media.
Cell plates were further incubated inside a humid chamber for 5 days p.i at 37° C./5% CO2. After the incubation period cells were observed under the microscope to check for characteristic cytopathic effect in virus control wells and healthy cells in the cell control wells. After plates were adjusted to room temperature 20 μl Viral ToxGlo (Promega) was added to each well of the 96-well cell plates. Plates were incubated at room temperature for 5 minutes before measuring the luminescence on a spectrophotometer (Envision, PerkinElmer).
DENV-2 inhibition was calculated as percentage of cytopathic effect inhibition relative to the virus control and cytotoxicity as percentage of cell survival relative to cell control wells.

RSV A2 = test: RSV inhibition (cytopathic effect inhibition) using Viral ToxGlo assay in HEp-2 cells; type: cell-based; conditions: human respiratory syncytial virus, RSV A2, MOI 0.5, HEp-2 cells, 72 h p.i.
How it was run: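 HEp-2 cells in EMEM with 2% FBS were infected with RSV A2 at MOI 0.5 immediately after compound (≤1% DMSO) and incubated 72 h at 37 °C. Viral ToxGlo luminescence gave % cytopathic effect inhibition versus virus control, plus cytotoxicity versus cell control; EC50 derived from dose-response.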

Row | Structure (SMILES) | inhibition at 10 µM (DENV-2 strain 16681) [%] | EC50 (RSV A2) [nM]
1 | Cc1cc(OCc2ccccn2)ccc1Nc1cccc(C(=O)NCCC2CCC2)c1 [Compound 46, N-(2-cyclobutylethyl)-3-((2-methyl-4-(pyridin-2-ylmethoxy)phenyl)amino)benzamide] | 71 | 199
2 | O=C(NCCC1CCCCC1)c1cccc(Nc2ccc(OCc3ccccn3)cc2)c1 [Compound 38, N-(2-cyclohexylethyl)-3-((4-(pyridin-2-ylmethoxy)phenyl)amino)benzamide] | 65 | 281
3 | CCCC(C)NC(=O)c1cccc(Nc2ccc(OCc3ccccn3)cc2)c1 (stereo not shown) [Compound 64, N-(pentan-2-yl)-3-((4-(pyridin-2-ylmethoxy)phenyl)amino)benzamide] | 93 | 341
4 | Cc1cc(OCc2ccccn2)ccc1Nc1cccc(NC(=O)NCCC(C)C)c1 [Compound 68, 1-isopentyl-3-(3-((2-methyl-4-(pyridin-2-ylmethoxy)phenyl)amino)phenyl)urea] | 70 | 144
5 | Cc1cc(OCc2ccccn2)ccc1Nc1cccc(C(=O)NCCC2CC2)c1 [Compound 45, N-(2-cyclopropylethyl)-3-((2-methyl-4-(pyridin-2-ylmethoxy)phenyl)amino)benzamide] | 89 | 280
